Results: patent US11497212B2, “Substituted thiophenyl uracils, salts thereof and the use thereof as herbicidal agents” (Syngenta Crop Protection AG, priority 2017, dated 2022)

Tests used:
Assay type in all cases: in vivo
Amaranthus retroflexus [1] = assay: Herbicidal action pre-emergence (greenhouse pot trial); settings: application rate 320 g/ha, scored after about 3 weeks
Source text: (§1) Seeds of mono- and dicotyledonous weeds and crop plants were laid out in plastic or organic plant pots and covered with soil. The compounds of the invention formulated in the form of wettable powders (WP) or emulsion concentrates (EC) were then applied to the surface of the covering soil as an aqueous suspension or emulsion with addition of 0.5% additive at a water application rate equivalent to 600 L/ha. After the treatment, the pots were placed in a greenhouse and kept under good growth conditions for the test plants. After about 3 weeks, the efficacy of the preparations was scored visually as a percentage by comparison with untreated controls. For example, 100% efficacy=plants have died, 0% efficacy=like control plants. Tables B1 to B16 below show the efficacies of selected compounds of the general formula (I) according to tables I.1 to I.60 on various harmful plants and an application rate corresponding to 320 g/ha or lower that were obtained by the aforementioned trial method.

Digitaria sanguinalis [2] = assay: as above; settings: application rate 80 g/ha
Source text: as §1

Matricaria inodora [3] = assay: as above; settings: application rate 320 g/ha, scored after about 3 weeks
Source text: as §1

Echinochloa crus-galli [4] = assay: as above; settings: application rate 320 g/ha, scored after about 3 weeks
Source text: as §1

Veronica persica [5] = assay: as above; settings: application rate 320 g/ha
Source text: as §1

Avena fatua = assay: as above; settings: application rate 320 g/ha
Source text: as §1

Stellaria media [6] = assay: as above; settings: application rate 320 g/ha, scored after about 3 weeks
Source text: as §1

Setaria viridis [7] = assay: as above; settings: application rate 320 g/ha, scored after about 3 weeks
Source text: as §1

Viola tricolor [8] = assay: as above; settings: application rate 320 g/ha, scored after about 3 weeks
Source text: as §1

Alopecurus myosuroides [9] = assay: as above; settings: application rate 320 g/ha, scored after about 3 weeks
Source text: as §1

Pharbitis purpurea [10] = assay: as above; settings: application rate 320 g/ha
Source text: as §1

Lolium rigidum [11] = assay: as above; settings: application rate 320 g/ha
Source text: as §1

Abutilon theophrasti [12] = assay: as above; settings: application rate 320 g/ha, scored after about 3 weeks
Source text: as §1

Oryza sativa = assay: Crop compatibility post-emergence (greenhouse pot trial)
Summary of the method: (§2)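 Crop seeds sown in sandy loam and grown in the greenhouse 2 to 3 weeks were treated at the one-leaf stage. WP or EC formulations were sprayed as aqueous suspension/emulsion with 0.5% additive at 600 L/ha. Damage was scored visually about 3 weeks later versus untreated controls (0% = like control, 100% = dead).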

Triticum aestivum = assay: as above
Summary of the method: as §2

Zea mays = assay: Crop compatibility pre-emergence (greenhouse pot trial); settings: effect vs untreated controls
Source text: as §1, with “plants.” for “plants. Tables B1 to B16 below show the efficacies of selected compounds of the general formula (I) according to tables I.1 to I.60 on various harmful plants and an application rate corresponding to 320 g/ha or lower that were obtained by the aforementioned trial method.”
(§3) Crop compatibilities were also scored correspondingly.
(§4) The effects observed are reported here on selected crop plants by comparison with the untreated controls (values in %).

Glycine max = assay: as above; settings: effect vs untreated controls
Source text: as §1, with “plants.” for “plants. Tables B1 to B16 below show the efficacies of selected compounds of the general formula (I) according to tables I.1 to I.60 on various harmful plants and an application rate corresponding to 320 g/ha or lower that were obtained by the aforementioned trial method.”
as §3, §4

Amaranthus retroflexus [13] = assay: Herbicidal action post-emergence (greenhouse pot trial); settings: application rate 80 g/ha, scored visually after about 3 weeks vs untreated controls
Summary of the method: (§5)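 Visual efficacy score after ~3 wk in greenhouse vs untreated control; 100% = plants dead, 0% = like control. Spray: aqueous suspension/emulsion of WP or EC, 0.5% additive, 600 L/ha water, ≤80 g/ha. Plants in sandy loam pots, treated at one-leaf stage, 2–3 wk post-sowing.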

Digitaria sanguinalis [14] = assay: as above; settings: application rate 80 g/ha
Summary of the method: as §5

Matricaria inodora [15] = assay: as above; settings: application rate 80 g/ha, scored visually after about 3 weeks vs untreated controls
Summary of the method: as §5

Echinochloa crus-galli [16] = assay: as above; settings: application rate 80 g/ha, scored visually after about 3 weeks vs untreated controls
Summary of the method: as §5

Veronica persica [17] = assay: as above; settings: application rate 80 g/ha
Summary of the method: as §5

Polygonum convolvulus = assay: as above; settings: application rate 80 g/ha, scored visually after about 3 weeks vs untreated controls
Summary of the method: as §5

Stellaria media [18] = assay: as above; settings: application rate 80 g/ha, scored visually after about 3 weeks vs untreated controls
Summary of the method: as §5

Setaria viridis [19] = assay: as above; settings: application rate 80 g/ha, scored visually after about 3 weeks vs untreated controls
Summary of the method: as §5

Viola tricolor [20] = assay: as above; settings: application rate 80 g/ha
Summary of the method: as §5

Alopecurus myosuroides [21] = assay: as above; settings: application rate 80 g/ha, scored visually after about 3 weeks vs untreated controls
Summary of the method: as §5

Pharbitis purpurea [22] = assay: as above; settings: application rate 80 g/ha
Summary of the method: as §5

Lolium rigidum [23] = assay: as above; settings: application rate 80 g/ha, scored visually after about 3 weeks vs untreated controls
Summary of the method: as §5

Abutilon theophrasti [24] = assay: as above; settings: application rate 80 g/ha, scored visually after about 3 weeks vs untreated controls
Summary of the method: as §5

Hordeum murinum [25] = assay: Herbicidal action pre-emergence (greenhouse pot trial); settings: application rate 320 g/ha
Source text: as §1

Hordeum murinum [26] = assay: Herbicidal action post-emergence (greenhouse pot trial); settings: application rate 80 g/ha, scored visually after about 3 weeks vs untreated controls
Summary of the method: as §5

Compound	Amaranthus retroflexus (Efficacy in %) (Amaranthus retroflexus [1]) [%]	Digitaria sanguinalis (Efficacy in %) (Digitaria sanguinalis [2]) [%]	Matricaria inodora (Efficacy in %) (Matricaria inodora [3]) [%]	Echinochloa crus-galli (Efficacy in %) (Echinochloa crus-galli [4]) [%]	Veronica persica (Efficacy in %) (Veronica persica [5]) [%]	Avena fatua (Efficacy in %) (Avena fatua) [%]	Stellaria media (Efficacy in %) (Stellaria media [6]) [%]	Setaria viridis (Efficacy in %) (Setaria viridis [7]) [%]	Viola tricolor (Efficacy in %) (Viola tricolor [8]) [%]	Pharbitis purpurea (Efficacy in %) (Pharbitis purpurea [10]) [%]	Lolium rigidum (Efficacy in %) (Lolium rigidum [11]) [%]	Abutilon theophrasti (Efficacy in %) (Abutilon theophrasti [12]) [%]	Oryza sativa (Efficacy in %) (Oryza sativa; application rate 5 g/ha) [%]	Amaranthus retroflexus (Efficacy in %) (Amaranthus retroflexus [13]) [%]	Digitaria sanguinalis (Efficacy in %) (Digitaria sanguinalis [14]) [%]	Matricaria inodora (Efficacy in %) (Matricaria inodora [15]) [%]	Echinochloa crus-galli (Efficacy in %) (Echinochloa crus-galli [16]) [%]	Veronica persica (Efficacy in %) (Veronica persica [17]) [%]	Polygonum convolvulus (Efficacy in %) (Polygonum convolvulus) [%]	Stellaria media (Efficacy in %) (Stellaria media [18]) [%]	also measured
Cn1c(C(F)(F)F)cc(=O)n(-c2cc(SCC(C)(C)C(=O)OCC3CCOC3)c(Cl)cc2F)c1=O (centres unmarked) [I.48-72]	100	100	100	100	100	80	100	100	100	100	80	100	0	100	100	100	100	100	100	100	Alopecurus myosuroides (Efficacy in %) (Alopecurus myosuroides [9]): 90%; Oryza sativa (Efficacy in %) (Oryza sativa; application rate 20 g/ha): 10%; Triticum aestivum (Efficacy in %) (Triticum aestivum; application rate 20 g/ha): 20%; Zea mays (Efficacy in %) (Zea mays; application rate 320 g/ha): 0%; Glycine max (Efficacy in %) (Glycine max; application rate 320 g/ha): 10%; Setaria viridis (Efficacy in %) (Setaria viridis [19]): 100%; Viola tricolor (Efficacy in %) (Viola tricolor [20]): 100%; Alopecurus myosuroides (Efficacy in %) (Alopecurus myosuroides [21]): 90%; Pharbitis purpurea (Efficacy in %) (Pharbitis purpurea [22]): 100%; Lolium rigidum (Efficacy in %) (Lolium rigidum [23]): 80%; Abutilon theophrasti (Efficacy in %) (Abutilon theophrasti [24]): 100%
COCCCOC(=O)C(C)Sc1cc(-n2c(=O)cc(C(F)(F)F)n(C)c2=O)c(F)cc1Cl (centres unmarked) [I.1-26]	100	100	100	100	100	80	100	100	100	100	90	100	10	100	100	100	100	100	100	100	Hordeum murinum (Efficacy in %) (Hordeum murinum [25]): 100%; Triticum aestivum (Efficacy in %) (Triticum aestivum; application rate 5 g/ha): 20%; Zea mays (Efficacy in %) (Zea mays; application rate 80 g/ha): 10%; Glycine max (Efficacy in %) (Glycine max; application rate 20 g/ha): 0%; Setaria viridis (Efficacy in %) (Setaria viridis [19]): 100%; Viola tricolor (Efficacy in %) (Viola tricolor [20]): 100%; Alopecurus myosuroides (Efficacy in %) (Alopecurus myosuroides [21]): 80%; Hordeum murinum (Efficacy in %) (Hordeum murinum [26]): 90%; Pharbitis purpurea (Efficacy in %) (Pharbitis purpurea [22]): 100%; Lolium rigidum (Efficacy in %) (Lolium rigidum [23]): 90%; Abutilon theophrasti (Efficacy in %) (Abutilon theophrasti [24]): 100%
